According to article PMC4326489, “Efficacy and pharmacokinetic evaluation of a novel anti-malarial compound (NP046) in a mouse model” (Malaria Journal, 2015):
≈ marks a conversion by molar mass, not a printed value.

Experiments:
[1] = Metabolic stability in human liver microsomes; assay type: in vitro ADME; settings: 0-60 minutes, read-out: in vitro intrinsic clearance
Experimental: (§1) Metabolism is an enzymatic process in which a drug is chemically modified into polar metabolites that can be more readily excreted from the body. Metabolism occurs mainly in the liver, and the intestine. The metabolic stability of NP046 was determined in human and mouse liver microsomes using a multiple-time-point method at 0, 5, 10, 30, and 60 minutes [for the methodology see Additional file 5].
(§2) Summary of the assay method for the determination of microsomal stability:
(§3) The assay method was adopted from Obach, 1999, Giuliano et al., 2005, and Naritomi et al., 2001, with a slight modification.
(§4) The liver microsome (human and mouse) was thawed at 37 °C, and diluted to 0.4 mg/ml in a preheated (at 37 °C) 0.1 M phosphate buffer.
(§5) The primary stock solutions (10 mM) of the controls and test compounds were diluted as follows: first in DMSO to obtain 400 µM solutions followed by dilution in phosphate buffer to 40 µM, and were vortex mixed well by vortexing at each step of dilution.
(§6) A reaction premix (in triplicate for each control and test compound) were prepared by mixing 15 µl of the 40 µM solution with 530 µl of 0.4 mg/ml microsome mixture in a premix plate, and mixed carefully using a plate shaker. […]
(§7) The intrinsic clearance (ml/min/kg) was calculated using the equation (Obach et al., 1997): […]

[2] = Kinetic solubility (HPLC-UV); assay type: physicochemical; settings: aqueous buffer, kinetic from dmso stock, PBS pH 2.0
Experimental: The concentration of the test compound (x) in PBS samples was calculated from the peak area (y) in its UV chromatogram by extrapolation from the three-point calibration line, using the equation y = ax + b; where a = slope and b = intercept.
Summary of the assay method for the determination kinetic solubility:
PBS was prepared and its pH adjusted to 2.0 and 7.4
primary stock solutions of the test compounds and controls (reserpine and hydrocortisone) in DMSO at 10 mM were prepared
Samples were briefly vortex mixed
samples were incubated for 2 hours while mixing in an incubator with orbital shaker at 200 rpm
samples were centrifuged at 3500 rpm for 15 minutes at 22 °C
the supernatant of the standards were transferred from the clear 96-well plate into an opaque, round bottom 96-well analysis plate, while the aqueous samples were filtered using a vacuum manifold through a multi-screen filter plate (MSRLN 0450, 0.4 µM), into the same opaque, round bottom 96-well plate
samples were analysed using HPLC-UV method by injecting the STDs in duplicate, and the samples in singlet.

[3] = test system: Plasmodium berghei transfected with green fluorescence protein (strain ANKA); assay: In vivo efficacy (four-day dosing) in P. berghei-infected mice, % parasitaemia by flow cytometry; set-up: species or system Plasmodium berghei in male C57BL/6 mice; settings: day five post-infection; for % parasitaemia: once a day for four days, mean ± S.E.M; for % growth inhibition: relative to negative control (placebo)
Experimental: Plasmodium berghei transfected with green fluorescence protein (strain ANKA), a chloroquine-sensitive strain, was stored in liquid nitrogen. Parasites were thawed and administered intraperitoneally (IP) to infect two donor mice a week before the experiment commenced. […] Finally, each of the test animals received 200 μl of the P. berghei-infected RBCs (1×10^7 per 200 μl PBS) IP to infect them with the parasite. There were three animals per dose group, and each of them received 200 μl of NP046 in water orally and intravenously (volume adjusted relative to the weight of mouse) at their respective dose concentration as shown below:
The test compound was administered to the animals once a day for four days. […] Blood samples were collected via tail bleeding in tubes containing PBS on day 5, and % parasitaemia was determined with FACSCalibur™ using the software CellQuestPro [5].
Finally, the percentage parasite growth inhibition was calculated using the following equation [6]: [drawing 1]

[4] = Metabolic stability in mouse liver microsomes; assay type: in vitro ADME; settings: 0-60 minutes, read-out: in vitro intrinsic clearance
Experimental: as §1, §2, §3, §4, §5, §6, §7

[5] = Lipophilicity, Log D by scaled-down shake-flask method (octanol/PBS); assay type: physicochemical; settings: pH 7.4, read-out: Log D7.4
Experimental: Lipophilicity is a compound’s tendency to partition into a non-polar lipid matrix versus an aqueous matrix. It is an important property of a drug which has a significant influence on the drug ADME/tox properties as well as its biological activity. […].
Stock solutions of NP046 and controls in DMSO (10 mM) were prepared and an aliquot of each phase (octanol/PBS) was analysed by an HPLC-Diode array detector (DAD) method. Chromatographic separation was achieved on a Phenomenex® Kinetex C18 (50 × 2.1 mm i.d. 2.6 μm) column with a gradient elution, using mobile phase (A) 5 mM ammonium format-acetonitrile (95:5, v/v) and (B) 5 mM ammonium format-acetonitrile (5:95, v/v). The Log D values were calculated using the analyte peak areas obtained from each phase (Octanol/PBS) according to the following equation [12]: [drawing 2]

Structure (SMILES): Oc1cc(CCCc2ccc(F)cc2)ccc1CN1CCCCC1 [NP046, 5-(3-(4-fluorophenyl)propyl)-2-(piperidin-1-ylmethyl)phenol]
- microsomal CLint at 0.99 µM [1]: 119 µL/min/mg
- solubility at 2 h [2]: 185 µM (≈ 60.7 µg/mL)
- % parasitaemia ([3]; 1 mg/kg IV): 10.2 ± 1.75%
- % growth inhibition ([3]; 5 mg/kg IV): 87.4%
- % parasitaemia ([3]; 5 mg/kg IV): 4.05 ± 0.12%
- % growth inhibition ([3]; 10 mg/kg oral): 24.6%
- % parasitaemia ([3]; 10 mg/kg oral): 24.3 ± 0.80%
- % growth inhibition ([3]; 50 mg/kg oral): 47.3%
- % parasitaemia ([3]; 50 mg/kg oral): 16.7 ± 3.34%
- microsomal CLint at 0.99 µM [4]: 657 µL/min/mg
- logD [5]: 2.6
